From PubChem BioAssay AID1918938 (Molecular Pharmacology Branch, DTP, NCI, 2023)
pIC50: −log10 of the molar value.

System: 556581-035-R-J1-PDC complex spheroid viability
Assay: Anticancer human tumor 556581-035-R-J1-PDC patient-derived ovarian carcinoma cell line growth inhibition
Settings: for pIC50: curve of first compound; for viability, T/C: stronger effect = lower value
Summary of the method: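 Multicellular complex spheroids of tumor cells with human endothelial cells (HUVEC) and mesenchymal stem cells; the LSD1 inhibitor iadademstat was combined with standard-of-care or investigational agents. Top concentration at or near clinical Cmax, half-log dilutions; final DMSO ≤0.25%.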
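Also: spheroids exposed to agents for seven days.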
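For viability, T/C in this document: 100% = DMSO vehicle control wells.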

`Nc1ccccc1NC(=O)c1ccc(CNC(=O)OCc2cccnc2)cc1` + NC1CCC(NC2CC2c2ccccc2)CC1 gave a pIC50 (second compound 0.1 µM) of 6.91, a pIC50 (second compound 0.316 µM) of 6.99 and a pIC50 (second compound 1 µM) of 6.95. For the same compound, the pIC50 (second compound 3.16 µM) was 7.16, the pIC50 (second compound 10 µM) was 7.49 and the viability, T/C (second compound 0.1 µM, first compound 0.00949 µM) was 82.9%. For the same compound, the viability, T/C (second compound 0.1 µM, first compound 0.03 µM) was 74.9%, the viability, T/C (second compound 0.1 µM, first compound 0.0949 µM) was 56.4% and the viability, T/C (second compound 0.1 µM, first compound 0.3 µM) was 28.5%. For the same compound, the viability, T/C (second compound 0.1 µM, first compound 0.949 µM) was 17.6%, the viability, T/C (second compound 0.1 µM, first compound 3 µM) was 1.21% and the viability, T/C (second compound 0.316 µM, first compound 0.00949 µM) was 77.4%. The viability, T/C (second compound 0.316 µM, first compound 0.03 µM) was 66.9%, the viability, T/C (second compound 0.316 µM, first compound 0.0949 µM) was 53.4% and the viability, T/C (second compound 0.316 µM, first compound 0.3 µM) was 28.7%. It also gave a viability, T/C (second compound 0.316 µM, first compound 0.949 µM) of 15.9%, a viability, T/C (second compound 0.316 µM, first compound 3 µM) of 1.67% and a viability, T/C (second compound 1 µM, first compound 0.00949 µM) of 69%. It also gave a viability, T/C (second compound 1 µM, first compound 0.03 µM) of 71.6%, a viability, T/C (second compound 1 µM, first compound 0.0949 µM) of 49.6% and a viability, T/C (second compound 1 µM, first compound 0.3 µM) of 32.1%. The viability, T/C (second compound 1 µM, first compound 0.949 µM) was 17.1%, the viability, T/C (second compound 1 µM, first compound 3 µM) was 0.88% and the viability, T/C (second compound 3.16 µM, first compound 0.00949 µM) was 79.5%. It also gave a viability, T/C (second compound 3.16 µM, first compound 0.03 µM) of 61.3%, a viability, T/C (second compound 3.16 µM, first compound 0.0949 µM) of 47.6% and a viability, T/C (second compound 3.16 µM, first compound 0.3 µM) of 26.4%. It also gave a viability, T/C (second compound 3.16 µM, first compound 0.949 µM) of 18.2%, a viability, T/C (second compound 3.16 µM, first compound 3 µM) of 1.11% and a viability, T/C (second compound 10 µM, first compound 0.00949 µM) of 74%. The viability, T/C (second compound 10 µM, first compound 0.03 µM) was 49%, the viability, T/C (second compound 10 µM, first compound 0.0949 µM) was 35.8% and the viability, T/C (second compound 10 µM, first compound 0.3 µM) was 17%. For the same compound, the viability, T/C (second compound 10 µM, first compound 0.949 µM) was 9.24% and the viability, T/C (second compound 10 µM, first compound 3 µM) was 0.63%.
Compound `O=C(c1cc(Cc2n[nH]c(=O)c3ccccc23)ccc1F)N1CCN(C(=O)C2CC2)CC1` + NC1CCC(NC2CC2c2ccccc2)CC1 has a pIC50 (second compound 0.1 µM) of less than 5.00, a pIC50 (second compound 0.316 µM) of less than 5.00 and a pIC50 (second compound 1 µM) of less than 5.00. It also gave a pIC50 (second compound 3.16 µM) of less than 5.00, a pIC50 (second compound 10 µM) of less than 5.00 and a viability, T/C (second compound 0.1 µM, first compound 0.0316 µM) of 85.8%. It also gave a viability, T/C (second compound 0.1 µM, first compound 0.1 µM) of 93.2%, a viability, T/C (second compound 0.1 µM, first compound 0.316 µM) of 91.7% and a viability, T/C (second compound 0.1 µM, first compound 1 µM) of 85.3%. The viability, T/C (second compound 0.1 µM, first compound 3.16 µM) was 83.9%, the viability, T/C (second compound 0.1 µM, first compound 10 µM) was 65% and the viability, T/C (second compound 0.316 µM, first compound 0.0316 µM) was 87.2%. It also gave a viability, T/C (second compound 0.316 µM, first compound 0.1 µM) of 93.7%, a viability, T/C (second compound 0.316 µM, first compound 0.316 µM) of 90.7% and a viability, T/C (second compound 0.316 µM, first compound 1 µM) of 86%. It also gave a viability, T/C (second compound 0.316 µM, first compound 3.16 µM) of 62.8%, a viability, T/C (second compound 0.316 µM, first compound 10 µM) of 65.8% and a viability, T/C (second compound 1 µM, first compound 0.0316 µM) of 77.4%. For the same compound, the viability, T/C (second compound 1 µM, first compound 0.1 µM) was 84.4%, the viability, T/C (second compound 1 µM, first compound 0.316 µM) was 83.6% and the viability, T/C (second compound 1 µM, first compound 1 µM) was 78.6%. It also gave a viability, T/C (second compound 1 µM, first compound 3.16 µM) of 72.6%, a viability, T/C (second compound 1 µM, first compound 10 µM) of 61.3% and a viability, T/C (second compound 3.16 µM, first compound 0.0316 µM) of 74.5%. It also gave a viability, T/C (second compound 3.16 µM, first compound 0.1 µM) of 73.9%, a viability, T/C (second compound 3.16 µM, first compound 0.316 µM) of 77.6% and a viability, T/C (second compound 3.16 µM, first compound 1 µM) of 66.3%. It also gave a viability, T/C (second compound 3.16 µM, first compound 3.16 µM) of 58.1%, a viability, T/C (second compound 3.16 µM, first compound 10 µM) of 66.5% and a viability, T/C (second compound 10 µM, first compound 0.0316 µM) of 74.2%. The viability, T/C (second compound 10 µM, first compound 0.1 µM) was 77.5%, the viability, T/C (second compound 10 µM, first compound 0.316 µM) was 69% and the viability, T/C (second compound 10 µM, first compound 1 µM) was 69.4%. It also gave a viability, T/C (second compound 10 µM, first compound 3.16 µM) of 58.7% and a viability, T/C (second compound 10 µM, first compound 10 µM) of 55.9%.
